Experimental data as given in US8927717B1, “Thiochromeno[2,3-c]quinolin-12-one derivatives, preparation method and application thereof” (National Defense Medical Center, priority 2014, dated 2015).

Columns and labels:
SN12C = type: cell-based; conditions: Renal cancer; 10^−5 molar; 48 hours; SRB
NCI-H226 = type: cell-based; conditions: Non-small cell lung cancer; 10^−5 molar; 48 hours; SRB
PC-3 = type: cell-based; conditions: Prostate cancer; 10^−5 molar; 48 hours; SRB
OVCAR-8 = type: cell-based; conditions: Ovarian cancer; 10^−5 molar; 48 hours; SRB
786-0 = type: cell-based; conditions: Renal cancer; 10^−5 molar; 48 hours; SRB
MDA-MB-486 = type: cell-based; conditions: Breast cancer; 10^−5 molar; 48 hours; SRB
MALME-3M = type: cell-based; conditions: Melanoma; 10^−5 molar; 48 hours; SRB
U251 = type: cell-based; conditions: CNS cancer; 10^−5 molar; 48 hours; SRB
SK-MEL-5 = type: cell-based; conditions: Melanoma; 10^−5 molar; 48 hours; SRB
KM12 = test: cells; type: cell-based; conditions: Colon cancer; 10^−5 molar; 48 hours; SRB
HS 578T = type: cell-based; conditions: Breast cancer; 10^−5 molar; 48 hours; SRB
NCI-H23 = type: cell-based; conditions: Non-small cell lung cancer; 10^−5 molar; 48 hours; SRB
SF-268 = type: cell-based; conditions: CNS cancer; 10^−5 molar; 48 hours; SRB
HCT-116 = type: cell-based; conditions: Colon cancer; 10^−5 molar; 48 hours; SRB
MCF7 = type: cell-based; conditions: Breast cancer; 10^−5 molar; 48 hours; SRB
NCI-H460 = type: cell-based; conditions: Non-small cell lung cancer; 10^−5 molar; 48 hours; SRB
HOP-92 = type: cell-based; conditions: Non-small cell lung cancer; 10^−5 molar; 48 hours; SRB
BT-549 = type: cell-based; conditions: Breast cancer; 10^−5 molar; 48 hours; SRB
LOX IMVI = type: cell-based; conditions: Melanoma; 10^−5 molar; 48 hours; SRB
COLO 205 = type: cell-based; conditions: Colon cancer; 10^−5 molar; 48 hours; SRB
UO-31 = type: cell-based; conditions: Renal cancer; 10^−5 molar; 48 hours; SRB
SF-539 = type: cell-based; conditions: CNS cancer; 10^−5 molar; 48 hours; SRB
NCI-H522 = type: cell-based; conditions: Non-small cell lung cancer; 10^−5 molar; 48 hours; SRB
A549/ATCC = type: cell-based; conditions: Non-small cell lung cancer; 10^−5 molar; 48 hours; SRB
HOP-62 = type: cell-based; conditions: Non-small cell lung cancer; 10^−5 molar; 48 hours; SRB
MDA-MB-231/ATCC = type: cell-based; conditions: Breast cancer; 10^−5 molar; 48 hours; SRB
HT29 = type: cell-based; conditions: Colon cancer; 10^−5 molar; 48 hours; SRB
SR = type: cell-based; conditions: Leukemia; 10^−5 molar; 48 hours; SRB
M14 = type: cell-based; conditions: Melanoma; 10^−5 molar; 48 hours; SRB
RPMI-8226 = type: cell-based; conditions: Leukemia; 10^−5 molar; 48 hours; SRB
UACC-257 = type: cell-based; conditions: Melanoma; 10^−5 molar; 48 hours; SRB
HCT-15 = type: cell-based; conditions: Colon cancer; 10^−5 molar; 48 hours; SRB
A498 = type: cell-based; conditions: Renal cancer; 10^−5 molar; 48 hours; SRB
SNB-75 = type: cell-based; conditions: CNS cancer; 10^−5 molar; 48 hours; SRB
RXF 393 = type: cell-based; conditions: Renal cancer; 10^−5 molar; 48 hours; SRB
60 cancer cell lines = test: NCI 60-cell screen, SRB, whole panel (mean, delta, range); type: cell-based; conditions: 10^−5 molar, 48 hours, SRB
SK-MEL-2 = type: cell-based; conditions: Melanoma; 10^−5 molar; 48 hours; SRB
CAKI-1 = type: cell-based; conditions: Renal cancer; 10^−5 molar; 48 hours; SRB
SK-OV-3 = type: cell-based; conditions: Ovarian cancer; 10^−5 molar; 48 hours; SRB
SNB-19 = type: cell-based; conditions: CNS cancer; 10^−5 molar; 48 hours; SRB
ACHN = type: cell-based; conditions: Renal cancer; 10^−5 molar; 48 hours; SRB
SF-295 = type: cell-based; conditions: CNS cancer; 10^−5 molar; 48 hours; SRB
IGROV1 = type: cell-based; conditions: Ovarian cancer; 10^−5 molar; 48 hours; SRB
SK-MEL-28 = type: cell-based; conditions: Melanoma; 10^−5 molar; 48 hours; SRB
T-47D = type: cell-based; conditions: Breast cancer; 10^−5 molar; 48 hours; SRB
MOLT-4 = type: cell-based; conditions: Leukemia; 10^−5 molar; 48 hours; SRB
K-562 = type: cell-based; conditions: Leukemia; 10^−5 molar; 48 hours; SRB
TK-10 = type: cell-based; conditions: Renal cancer; 10^−5 molar; 48 hours; SRB
HL-60(TB) = type: cell-based; conditions: Leukemia; 10^−5 molar; 48 hours; SRB
CCRF-CEM = type: cell-based; conditions: Leukemia; 10^−5 molar; 48 hours; SRB
OVCAR-5 = type: cell-based; conditions: Ovarian cancer; 10^−5 molar; 48 hours; SRB
UACC-62 = type: cell-based; conditions: Melanoma; 10^−5 molar; 48 hours; SRB
MDA-MB-435 = type: cell-based; conditions: Melanoma; 10^−5 molar; 48 hours; SRB
HCC-2998 = type: cell-based; conditions: Colon cancer; 10^−5 molar; 48 hours; SRB
NCI/ADR-RES = type: cell-based; conditions: Ovarian cancer; 10^−5 molar; 48 hours; SRB
OVCAR-4 = type: cell-based; conditions: Ovarian cancer; 10^−5 molar; 48 hours; SRB
SW-620 = type: cell-based; conditions: Colon cancer; 10^−5 molar; 48 hours; SRB
DU-145 = type: cell-based; conditions: Prostate cancer; 10^−5 molar; 48 hours; SRB

CCC(CC)Nc1nc2ccccc2c2c(=O)c3cc(Cl)ccc3sc12 [Compound N6, 10-Chloro-6-(pentan-3-ylamino)-12H-thiochromeno[2,3-c]quinolin-12-one]
Growth percent SN12C (SN12C): 94.28% | Growth percent NCI-H226 (NCI-H226): 79.22% | Growth percent PC-3 (PC-3): 84.63% | Growth percent OVCAR-8 (OVCAR-8): 95.31% | Growth percent 786-0 (786-0): 108.84% | Growth percent MDA-MB-486 (MDA-MB-486): 95.79% | Growth percent MALME-3M (MALME-3M): 92.36% | Growth percent U251 (U251): 97.05% | Growth percent SK-MEL-5 (SK-MEL-5): 90.08% | Growth percent KM12 (KM12): 94.04% | Growth percent HS 578T (HS 578T): 89.81% | Growth percent NCI-H23 (NCI-H23): 94.17% | Growth percent SF-268 (SF-268): 102.86% | Growth percent HCT-116 (HCT-116): 99.01% | Growth percent MCF7 (Table 2: MCF) (MCF7): 67.12% | Growth percent NCI-H460 (NCI-H460): 99.42% | Growth percent HOP-92 (HOP-92): 83.26% | Growth percent BT-549 (BT-549): 109.76% | Growth percent LOX IMVI (LOX IMVI): 89.35% | Growth percent COLO 205 (COLO 205): 107.68% | Growth percent UO-31 (UO-31): 78.57% | Growth percent SF-539 (SF-539): 95.09% | Growth percent NCI-H522 (NCI-H522): 99.02% | Growth percent A549/ATCC (A549/ATCC): 91.04% | Growth percent HOP-62 (HOP-62): 95.32% | Growth percent MDA-MB-231/ATCC (MDA-MB-231/ATCC): 77.83% | Growth percent HT29 (HT29): 116.70% | Growth percent SR (SR): 104.59% | Growth percent M14 (M14): 107.34% | Growth percent RPMI-8226 (RPMI-8226): 108.60% | Growth percent UACC-257 (UACC-257): 99.44% | Growth percent HCT-15 (HCT-15): 95.35% | Growth percent A498 (A498): 103.44% | Growth percent SNB-75 (SNB-75): 73.24% | Growth percent RXF 393 (RXF 393): 93.23% | Growth percent, Delta (60 cancer cell lines; delta over the cell panel): 29.82% | Growth percent, Mean (60 cancer cell lines; mean over the cell panel): 96.94% | Growth percent, Range (60 cancer cell lines; range over the cell panel): 74.81% | Growth percent SK-MEL-2 (SK-MEL-2): 104.97% | Growth percent CAKI-1 (CAKI-1): 73.26% | Growth percent SK-OV-3 (SK-OV-3): 99.71% | Growth percent SNB-19 (SNB-19): 99.01% | Growth percent ACHN (ACHN): 84.92% | melting point: 160 to 161 °C | Growth percent SF-295 (SF-295): 104.18% | Growth percent IGROV1 (IGROV1): 80.40% | Growth percent SK-MEL-28 (SK-MEL-28): 98.40% | Growth percent T-47D (T-47D): 73.62% | Growth percent MOLT-4 (MOLT-4): 103.08% | Growth percent K-562 (K-562): 95.25% | Growth percent TK-10 (TK-10): 138.89% | Growth percent HL-60(TB) (HL-60(TB)): 141.93% | Growth percent CCRF-CEM (CCRF-CEM): 93.72% | Growth percent OVCAR-5 (OVCAR-5): 99.96% | Growth percent UACC-62 (UACC-62): 83.74% | Growth percent MDA-MB-435 (MDA-MB-435): 108.13% | Growth percent HCC-2998 (HCC-2998): 119.79% | Growth percent NCI/ADR-RES (NCI/ADR-RES): 101.32% | Growth percent OVCAR-4 (OVCAR-4): 98.77% | Growth percent SW-620 (SW-620): 104.94% | Growth percent DU-145 (DU-145): 109.54%
